The text below walks through data of patent US20240335425A1, “PHARMACEUTICAL COMPOSITIONS OF ALPHA-2-ADRENERGIC RECEPTOR AGONISTS AND THEIR USE FOR IMPROVING VISION” (Allergan, Inc., priority 2020, published 2024).

Series [1] concerns the target T1, human alpha-2A receptor (Homo sapiens, UniProt P08913).
T1 construct: expressed in transfected cells
T1 sequence (P08913 1-465): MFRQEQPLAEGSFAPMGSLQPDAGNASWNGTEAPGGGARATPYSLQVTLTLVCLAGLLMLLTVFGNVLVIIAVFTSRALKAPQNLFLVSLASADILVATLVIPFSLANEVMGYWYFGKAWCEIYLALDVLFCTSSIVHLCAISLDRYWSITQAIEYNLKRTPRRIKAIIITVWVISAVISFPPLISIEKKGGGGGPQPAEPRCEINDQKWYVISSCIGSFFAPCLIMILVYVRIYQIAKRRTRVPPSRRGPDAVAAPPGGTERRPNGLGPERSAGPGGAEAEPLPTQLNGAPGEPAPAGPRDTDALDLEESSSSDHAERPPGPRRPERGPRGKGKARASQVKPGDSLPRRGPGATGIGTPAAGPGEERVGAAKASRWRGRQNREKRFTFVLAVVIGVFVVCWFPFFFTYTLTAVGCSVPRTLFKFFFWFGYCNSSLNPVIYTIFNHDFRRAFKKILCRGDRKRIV
The experiment in a line: FLIPR calcium assay, HEK293 cells with human alpha-2A receptor coupled via chimeric Gqi5. Format: cell-based. How it is done: (§1) An in vitro FLIPR (fluorometric image plate reader) assay was performed on several compounds, including the compound of Formula I (entry 1 in Table 1).
Specifically, four HEK293 stable cell lines were used in the FLIPR assay. The HEK293 cell line which stably expressed the bovine alpha adrenergic 1A receptor was used to characterize the alpha1 pharmacology. The alpha-2 adrenergic receptor family is a G coupled G-protein receptor. Therefore, in order to use these cell lines in the calcium based FLIPR assay, the chimeric G-protein Gqi5 was used to force the coupling of the human alpha-2A, alpha-2B, and alpha-2C receptors to the calcium pathway. Cells were plated, in triplicate, in poly-D-lysine coated 384-well plates at 25,000 cells per well and grown overnight in DMEM supplemented with 10% fetal bovine serum. For FLIPR evaluation, cells were washed twice with HBSS/HEPES buffer (1× Hanks Buffered Salt Solution, 20 mM HEPES, pH 7.4) prior to the addition of Fluo-4-AM (4 uM Fluo-4-AM, 0.04% pluronic acid in HBSS/HEPES buffer), a calcium-sensitive dye. Cells were loaded with dye for 40 minutes at 37° C., and then washed 4 times with HBSS/HEPES buffer to remove the excess dye. The test compounds were profiled at concentrations between 0.64 nM and 10,000 nM using a […] dilution factor.
(§2) The receptor activation was initiated by the addition of the appropriate dilutions of compounds and the transient calcium signal was captured. The peak height of the calcium curve was determined and utilized for calculation of EC50 and relative efficacy values using Activity Base software. EC50 was calculated using a 4 Parameter Logistic Equation: y=A+((B−A)/(1+((C/x)^D))) where A and B represents the bottom and top plateau of the curve; C represents the EC50 value; D represents the slope factor; and x and y represent the original x (drug concentration) and y (fluorescence signal, RFU) values.

Series [2] deals with Dutch Belted rabbits. The experiment in a line: In vivo rabbit miosis model (pupil diameter after single topical dose). The conditions noted are these: for miotic efficacy compared with other alpha adrenergic receptor agonists: topical dose, low-light conditions (2-10 Lux); for animals with greater than 2.5 mm reduction in pupil size from baseline: 0.1% w:v, scotopic (<10 lux), n=6. As to the method: Female Dutch Belted rabbits (Covance, Princeton, New Jersey) weighing between 2-4 kg were used for these studies. […] For topical dosing, eye drops (volume=35 μl) were instilled into the lower conjunctival sac of the test eye.
Pupil diameter was measured in both the treated and untreated eye with an Optistick to the nearest 0.5 mm. […]

The test system of series [3] is presbyopic patients. The conditions noted are these: different lighting conditions; cited from earlier work.
Series [4] concerns the target T2, bovine alpha adrenergic 1A receptor (Bos taurus, UniProt P18130).
T2 construct: expressed in transfected cells
T2 sequence (P18130 1-466): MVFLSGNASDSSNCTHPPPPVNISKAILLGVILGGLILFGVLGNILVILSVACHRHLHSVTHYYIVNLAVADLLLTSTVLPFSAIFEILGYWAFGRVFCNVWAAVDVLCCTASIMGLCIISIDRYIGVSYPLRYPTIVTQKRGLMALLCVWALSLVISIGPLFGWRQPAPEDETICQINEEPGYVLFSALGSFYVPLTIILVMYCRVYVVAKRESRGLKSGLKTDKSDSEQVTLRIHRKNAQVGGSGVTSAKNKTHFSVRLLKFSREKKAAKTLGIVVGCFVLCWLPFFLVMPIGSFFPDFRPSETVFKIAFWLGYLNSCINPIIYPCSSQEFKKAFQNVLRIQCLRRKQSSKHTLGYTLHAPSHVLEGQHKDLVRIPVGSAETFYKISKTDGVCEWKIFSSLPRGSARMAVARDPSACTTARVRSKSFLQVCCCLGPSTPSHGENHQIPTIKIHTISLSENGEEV
The experiment in a line: FLIPR calcium assay, HEK293 cells stably expressing bovine alpha 1A receptor. The settings on record: HEK293 stable cell line, peak calcium signal; read-out: bovine alpha1A EC50 (nm). Format: cell-based. How it is done:
as §1
Specifically, four HEK293 stable cell lines were used in the FLIPR assay. The HEK293 cell line which stably expressed the bovine alpha adrenergic 1A receptor was used to characterize the alpha1 pharmacology. The alpha-2 adrenergic receptor family is a G coupled G-protein receptor. Therefore, in order to use these cell lines in the calcium based FLIPR assay, the chimeric G-protein Gqi5 was used to force the coupling of the human alpha-2A, alpha-2B, and alpha-2C receptors to the calcium pathway. […]
as §2

The procedure of series [5]: Aliquots of the PBS only curve were quenched at time zero to be used as stability controls and calibration standards. Following centrifugation, samples were analyzed by LC-MS/MS bioanalysis. Back-calculated concentrations using the assay PBS curve were used for binding and stability calculations.

The structures appear in SMILES notation. pEC50: −log10 of the molar value. Where two headings read alike, the source gives them in different places.

Consider `CCc1c(N=C2NCCN2)ccc2[nH]cnc12` [Compound 2, reference compound], for which, in series [1], the pEC50 is 7.96. Moreover, in series [2], the “miotic efficacy compared with other alpha adrenergic receptor agonists” value is reported as “much less than brimonidine”.
In the case of `Brc1c(N=C2NCCN2)ccc2[nH]cnc12` [Compound 3, reference compound], the pEC50 in series [1] (HEK293 stable cell line with Gqi5, peak calcium signal, read-out: human alpha2A EC50 (nm)) is 9.00. The “miotic efficacy compared with other alpha adrenergic receptor agonists” value in series [2] is on record as “much less than brimonidine”.
Regarding `Brc1c(NC2=NCCN2)ccc2nccnc12` [Compound 4, brimonidine, reference compound], in series [3], the “average pupil size after brimonidine” value is listed as 3.4 mm. Besides, the “animals with greater than 2.5 mm reduction in pupil size from baseline” value is “virtually none of the animals” in series [2] (after 6 hours) and “much less than half of the animals” in series [2] (half hour after dosing). For the same compound, in series [4], the pEC50 was 5.92. Besides, in series [5], the “melanin binding (in words)” value is “much more significant binding”.

By pEC50 is commonly meant the negative decadic logarithm of the EC50, by convention in mol/L.
